According to US20180244645A1, “2-AMINO-3-FLUORO-3-(FLUOROMETHYL)-6-METHYL-6-PHENYL-3,4,5,6-TETRAHYDROPYRIDINES AS BACE1 INHIBITORS” (H. Lundbeck A/S, priority 2015, published 2018):

Test system: Aβ40
Test: Assessment of Aβ levels in rat brain and plasma following BACE1 inhibition (Aβ40 ELISA)
Format: in vivo
Conditions: 3 hours post dose, vs vehicle
Description: Assessment of Aβ Levels in Rat Brain and Plasma Following BACE1 Inhibition. Animals.
All rat care and experimental procedures were approved by Lundbeck Veterinary Staff, according to Danish legislature. The rats were maintained in a barrier facility with a 12/12-h light/dark cycle and ad libitum food and water access.
Young adult Male Sprague Dawley rats of approximately 250 g weight were purchased from Charles River and received 0-30 mg/kg of vehicle (10% HP betaCD+1M MeSO4, pH 2.5) or test compounds (dissolved in vehicle) only by oral gavage (p.o). The compounds are dosed at a volume of 5 ml/kg. Cohorts of 5-10 animals were established for each treatment condition.
The animals undergoing treatment were closely monitored by veterinary staff for any signs of toxicity. Monitoring parameters included body weight, physical appearance, changes in coat appearance, occurrence of unprovoked behavior, and blunted or exaggerated responses to external stimuli.
At T=180 minutes after initial dosing the animals were stunned and decapitated with a guillotine. Trunk-blood was sampled in EDTA coated tubes after decapitation of the animal. The blood was centrifuged at 2200G at 4° C. for 15 minutes and the plasma was collected and frozen at −80° C. The blood was aliquoted for Aβ ELISA and pharmacokinetic analysis. Immediately following sacrifice, the brain was extracted and split into 2 halves. The right hemibrains were snap frozen on dry ice and stored at −80° C. The left half was dissected; with the front forebrain taken for Aβ ELISA and the remainder used for DMPK analysis. These samples were also snap frozen on dry ice and stored at −80° C. until use for analysis.
The cortex samples were thawed slightly on wet ice before they were homogenized with a small volume dispersing instrument (T10 basic ULTRA-TURRAX®) which was set at speed 5 for approximately 5-7 sec. The tissue was processed in a 10 times volume of the weight, for example 100 mg of tissue was homogenized in 1000 μL of Homogenization buffer. Homogenization buffer: 50 ml Milli Q water+50 nM NaCl+0.2% Diethylamin (DEA)+1 tablet of Complete Protease inhibitor cocktail+1 nM 4-(2-aminoethyl) benzenesulfonyl fluoride hydrochloride irreversible serine protease inhibitor (AEBSF).
After homogenization 450 μL aliquots of the samples were collected into a 1.5 ml Eppendorf tube and placed on wet ice, 0.5% NP-40 (50 ul) was added to all samples and then they were incubated on ice for 30 min. After which all samples were sonicated using an Ultrasonic homogenizer with 20 kHz homogeneous sound (SONOPLUS HD2070, Bandelin Electronic) 10 pulse set at 12-13% power to extract all the Aβ species. The samples were then centrifuged (Ole Dich 157 MPRF Micro centrifuge) at 20000G for 20 minutes at 4° C. After centrifugation […] of the supernatant was pipetted into 6004 microtubes tubes and neutralized with 154 of 1M Tris-HCL buffer.
WAKO 294-62501 Human/Rat Abeta amyloid (40) kit was used for all ELISA analyses. 30 μL plasma samples or 30 μL of the cortex supernatants generated as described above were placed in 600 μL microtubes tubes on wet ice. To this 30 μL of 8M urea (AppliChem A1049, 9025) was added to generate a 2-fold dilution. Both plasma and cortex supernatants were incubated on ice for 30 min. Standard rows were prepared from the standard peptide stock provided in the kit and standard diluent containing 1.6M Urea (200 μL 8M urea+800 μL of standard diluent) and 0.8M urea (400 μL 8M urea+3600 μL Standard diluent). A serial 2-fold dilution of […] from 100 pmol/ml to 0 pmol/L was prepared for the assay.
After incubation with urea, all samples were further diluted by addition of 5 times standard diluent from the Kit. This was done by adding 240 μL Standard Diluent to 60 μL sample/urea mixture, which was then mixed well. 100 μL of each diluted sample was pipetted into designated wells of the ELISA plate in duplicates. The plate was then covered and incubated overnight at 4° C. […]

| Structure (SMILES) | Aβ40 reduction, Brain Rat (10 mg/kg p.o.) [%] | Aβ40 reduction, Brain Rat (30 mg/kg p.o.) [%] | Aβ40 reduction, Plasma Rat (10 mg/kg p.o.) [%] | Aβ40 reduction, Plasma Rat (30 mg/kg p.o.) [%] |
| --- | --- | --- | --- | --- |
| COc1cnc(C(=O)Nc2ccc(F)c([C@]3(C)CC[C@@](F)(CF)C(N)=N3)c2)cn1 [Compound 5, N-(3-((2S,5S)-6-Amino-5-fluoro-5-(fluoromethyl)-2-methyl-2,3,4,5-tetrahydropyridin-2-yl)-4-fluorophenyl)-5-methoxypyrazine-2-carboxamide] | 56 | 65 | 44 | 46 |
| C[C@@]1(c2cc(NC(=O)c3cnc(C(F)F)cn3)ccc2F)CC[C@@](F)(CF)C(N)=N1 [Compound 11, N-(3-((2S,5S)-6-Amino-5-fluoro-5-(fluoromethyl)-2-methyl-2,3,4,5-tetrahydropyridin-2-yl)-4-fluorophenyl)-5-(difluoromethyl)pyrazine-2-carboxamide] | 21 | 41 | 39 | 60 |
| C[C@@]1(c2cc(NC(=O)c3ccc(F)cn3)ccc2F)CC[C@@](F)(CF)C(N)=N1 [Compound 13, N-(3-((2S,5S)-6-Amino-5-fluoro-5-(fluoromethyl)-2-methyl-2,3,4,5-tetrahydropyridin-2-yl)-4-fluorophenyl)-5-fluoropicolinamide] | 43 | 59 | 38 | 38 |
